Measurements taken from patent US20130302442A1, “METHODS OF USING (4S,4AS,5AR,12AS)-4-DIMETHYLAMINO-3,10,12,12A-TETRAHYDROXY-7-[(METHOXY(METHYL)AMINO)-METHYL]-1,11-DIOXO-1,4,4A,5,5A,6,11,12A-OCTAHYDRO-NAPHTHACENE-2-CARBOXYLIC ACID AMIDE” (priority 2012, published 2013).
Converted amounts (≈) assume the structure as drawn. Read-outs that look alike come from different tables or passages of the source.

Key:
Helicobacter pylori [1] = assay: In vitro MIC against multiple isolates of H. pylori; format: cell-based
Helicobacter pylori [2] = conditions: H. pylori reference strain 3718, ATCC 43504; Clinical and Laboratory Standards Institute quality control range; cited from earlier work
P. acnes = assay: In vitro MIC testing, antibacterial spectrum of activity; format: cell-based, Propionibacterium acnes; conditions: Cutibacterium acnes
P. avidum = assay: as above; format: cell-based; conditions: P. avidum [clinical isolates] (4 isolates)
S. aureus = assay: as above; format: cell-based, Staphylococcus aureus; conditions: Staphylococcus aureus
S. epidermidis = assay: as above; format: cell-based, Staphylococcus epidermidis; conditions: Staphylococcus epidermidis; for MIC50: read-out: MIC50; for MIC90: read-out: MIC90
S. pneumoniae = assay: as above; format: cell-based, Streptococcus pneumoniae; conditions: Streptococcus pneumoniae, S. pneumoniae [PSSP] (32 isolates)
S. pyogenes = assay: as above; format: cell-based; conditions: Streptococcus pyogenes
S. agalactiae = assay: as above; format: cell-based; conditions: Streptococcus agalactiae
S. haemolyticus = assay: as above; format: cell-based; conditions: Staphylococcus haemolyticus, S. haemolyticus (33 isolates)
[3] = test system: Streptococcus spp. [Group C]; assay: as above; format: cell-based; conditions: Streptococcus spp. [Group C] (30 isolates)
E. faecalis = assay: as above; format: cell-based; conditions: Enterococcus faecalis
E. faecium = assay: as above; format: cell-based; conditions: Enterococcus faecium
[4] = test system: methicillin-sensitive S. aureus (MSSA); assay: In vitro MIC against isolates of MSSA; format: cell-based, Staphylococcus aureus; conditions: Staphylococcus aureus, MSSA (34 isolates)
[5] = test system: hospital-associated methicillin-resistant S. aureus (MRSA-HA); assay: In vitro MIC against isolates of MRSA-HA; format: cell-based, Staphylococcus aureus; conditions: Staphylococcus aureus; MRSA-HA (33 isolates)
[6] = test system: community-acquired methicillin-resistant S. aureus (MRSA-CA); assay: In vitro MIC against isolates of MRSA-CA; format: cell-based, Staphylococcus aureus; conditions: Staphylococcus aureus; MRSA-CA (33 isolates)
[7] = S. epidermidis [MRSE] (32 isolates)
[8] = S. epidermidis [MSSE] (31 isolates)

CC1(C)S[C@@H]2[C@H](NC(=O)[C@H](N)c3ccc(O)cc3)C(=O)N2[C@H]1C(=O)O [AMX, amoxicillin]
MIC Range (Helicobacter pylori [1]; H. pylori clinical isolate summary): 0.015 to 0.12 µg/mL | MIC (Helicobacter pylori [1]; H. pylori clinical isolate, culture No. 4368): 0.06 µg/mL (≈ 0.164 µM) | MIC (Helicobacter pylori [1]; H. pylori clinical isolate, culture No. 4369): 0.12 µg/mL (≈ 0.328 µM) | MIC (Helicobacter pylori [1]; H. pylori clinical isolate, culture No. 4370): 0.12 µg/mL (≈ 0.328 µM) | MIC (Helicobacter pylori [1]; H. pylori clinical isolate, culture No. 4371): 0.12 µg/mL (≈ 0.328 µM) | MIC (Helicobacter pylori [1]; H. pylori clinical isolate, culture No. 4372): 0.015 µg/mL (≈ 0.041 µM) | MIC (Helicobacter pylori [1]; H. pylori clinical isolate, culture No. 4374): 0.015 µg/mL (≈ 0.041 µM) | MIC (Helicobacter pylori [1]; H. pylori clinical isolate, culture No. 4375): 0.12 µg/mL (≈ 0.328 µM) | MIC (Helicobacter pylori [1]; H. pylori clinical isolate, culture No. 4377): 0.015 µg/mL (≈ 0.041 µM) | MIC (Helicobacter pylori [1]; H. pylori clinical isolate, culture No. 4503): 0.03 µg/mL (≈ 0.0821 µM) | MIC (Helicobacter pylori [1]; H. pylori clinical isolate, culture No. 4504): 0.015 µg/mL (≈ 0.041 µM) | MIC (Helicobacter pylori [1]; H. pylori reference strain, culture No. 3718, ATCC 43504): 0.03 µg/mL (≈ 0.0821 µM) | MIC (Helicobacter pylori [1]; H. pylori reference strain, culture No. 3719, ATCC 700824): 0.015 µg/mL (≈ 0.041 µM) | MIC (Helicobacter pylori [1]; H. pylori reference strain, culture No. 3720, ATCC BAA-945): 0.06 µg/mL (≈ 0.164 µM) | MIC50 (Helicobacter pylori [1]; H. pylori, MIC for 50% of clinical test isolates): 0.03 µg/mL (≈ 0.0821 µM) | MIC90 (Helicobacter pylori [1]; H. pylori, MIC for 90% of clinical test isolates): 0.12 µg/mL (≈ 0.328 µM) | MIC, CLSI Quality Control Range (Helicobacter pylori [2]): (0.015-0.12) μg/mL

CCC[C@@H]1C[C@@H](C(=O)N[C@@H]([C@H]2O[C@H](SC)[C@H](O)[C@@H](O)[C@H]2O)[C@H](C)Cl)N(C)C1 [Clindamycin]
MIC50 (P. acnes; read-out: MIC50): ≤ 0.06 µg/mL | MIC90 (P. acnes; read-out: MIC90): 4 µg/mL (≈ 9.41 µM) | MIC Range (P. avidum): ≦0.06-0.5 μg/mL | MIC50 (S. aureus; MRSA): 0.25 µg/mL (≈ 0.588 µM) | MIC90 (S. aureus; MRSA): > 32 µg/mL | MIC50 (S. aureus; MSSA): 0.25 µg/mL (≈ 0.588 µM) | MIC90 (S. aureus; MSSA): > 32 µg/mL | MIC50 (S. epidermidis; [7]): > 32 µg/mL | MIC90 (S. epidermidis; [7]): > 32 µg/mL | MIC50 (S. epidermidis; [8]): 0.12 µg/mL (≈ 0.282 µM) | MIC90 (S. epidermidis; [8]): > 32 µg/mL | MIC50 (S. pneumoniae; read-out: MIC50): 0.03 µg/mL (≈ 0.0706 µM) | MIC90 (S. pneumoniae; read-out: MIC90): 0.06 µg/mL (≈ 0.141 µM) | MIC50 (S. pyogenes): 0.03 µg/mL (≈ 0.0706 µM) | MIC90 (S. pyogenes): 0.06 µg/mL (≈ 0.141 µM) | MIC50 (S. agalactiae): 0.06 µg/mL (≈ 0.141 µM) | MIC90 (S. agalactiae): > 16 µg/mL | MIC50 (S. haemolyticus; read-out: MIC50): 0.12 µg/mL (≈ 0.282 µM) | MIC90 (S. haemolyticus; read-out: MIC90): 1 µg/mL (≈ 2.35 µM) | MIC50 ([3]; read-out: MIC50): 0.06 µg/mL (≈ 0.141 µM) | MIC90 ([3]; read-out: MIC90): 0.12 µg/mL (≈ 0.282 µM) | MIC50 (E. faecalis): > 32 µg/mL | MIC90 (E. faecalis): > 32 µg/mL | MIC50 (E. faecium): > 32 µg/mL | MIC90 (E. faecium): > 32 µg/mL | MIC50 (E. faecium; VRE): > 32 µg/mL | MIC90 (E. faecium; VRE): > 32 µg/mL | MIC50 [4]: 0.12 µg/mL (≈ 0.282 µM) | MIC90 ([4]; read-out: MIC90): > 32 µg/mL | MIC50 [5]: 2 µg/mL (≈ 4.71 µM) | MIC90 [5]: > 32 µg/mL | MIC50 [6]: 0.12 µg/mL (≈ 0.282 µM) | MIC90 [6]: 0.25 µg/mL (≈ 0.588 µM)
